Tests used:
[1] = biological target: T1, human recombinant serotonin (5-Hydroxytryptamine) 5-HT2A receptor (Homo sapiens, UniProt P28223); assay: Serotonin 5-HT2A radioligand binding ([3H]Ketanserin); conditions: compound at 0.1 μM; read-out: Inhibition of ligand binding, Serotonin 5-HT2A (percent inhibition of specific binding)
T1 construct: expressed in transfected cells; host or cells: CHO-K1
Method: Compounds of the invention were incubated with 0.5 nM [^3H]Ketanserin for 60 min at 25° C. Non-specific binding was estimated in the presence of 1 μM Mianserin. Receptor proteins were filtered and washed, the filters were then counted to determine [^3H]Ketanserin specifically bound.

[2] = biological target: T2, human recombinant dopamine D2L receptor (Homo sapiens, UniProt P14416); assay: Dopamine D2L radioligand binding ([3H]Spiperone); conditions: read-out: Dopamine D2L (1 μM), percent inhibition of specific binding; compound at 1 μM; 0.16 nM [3H]Spiperone
T2 construct: expressed in transfected cells; host or cells: CHO
Method: Non-specific binding was estimated in the presence of 10 μM Haloperidol. Receptor proteins were filtered and washed, the filters were then counted to determine [^3H]Spiperone specifically bound.

[3] = biological target: T3, human recombinant serotonin (5-Hydroxytryptamine) 5-HT7 receptor (Homo sapiens, UniProt P34969); assay: Serotonin 5-HT7 radioligand binding ([3H]LSD); conditions: compound at 0.1 μM; read-out: Inhibition of ligand binding, Serotonin 5-HT7 (percent inhibition of specific binding)
T3 construct: expressed in transfected cells; host or cells: CHO
Method: Lysergic acid diethylamide (LSD) for 120 min. at 25° C. […] Receptor proteins were filtered and washed, the filters were then counted to determine [^3H]LSD specifically bound.

[4] = biological target: T4, human recombinant serotonin (5-Hydroxytryptamine) 5-HT6 receptor (Homo sapiens, UniProt P50406); assay: Serotonin 5-HT6 radioligand binding ([3H]LSD); conditions: compound at 0.1 μM; read-out: Inhibition of ligand binding, Serotonin 5-HT6 (percent inhibition of specific binding)
T4 construct: expressed in transfected cells; host or cells: HeLa
Description: Receptor proteins were filtered and washed, the filters were then counted to determine [3H]LSD specifically bound.

[5] = biological target: T5, human recombinant serotonin (5-Hydroxytryptamine) 5-HT5A receptor (Homo sapiens, UniProt P47898); assay: Serotonin 5-HT5A radioligand binding ([3H]LSD); conditions: compound at 0.1 μM; read-out: Inhibition of ligand binding, Serotonin 5-HT5A (percent inhibition of specific binding)
T5 construct: expressed in transfected cells; host or cells: CHO-K1
Method: Compounds of the invention were incubated with 1.7 nM [^3H]Lysergic acid diethylamide (LSD) for 60 min at 37° C. […] Receptor proteins were filtered and washed, the filters were counted to determine [^3H]LSD specifically bound.

[6] = biological target: T6, rat adrenergic α1A receptor (Rattus norvegicus, UniProt P43140); assay: Adrenergic α1A radioligand binding ([3H]Prazosin); conditions: read-out: Adrenergic (0.1 μM) a1A, percent inhibition of specific binding; compound at 0.1 μM; 0.25 nM [3H]Prazosin
T6 construct: rat adrenergic α1A receptor obtained from Wistar Rat submaxillary glands; from tissue; host or cells: Wistar rat submaxillary glands
T6 sequence (P43140 1-466): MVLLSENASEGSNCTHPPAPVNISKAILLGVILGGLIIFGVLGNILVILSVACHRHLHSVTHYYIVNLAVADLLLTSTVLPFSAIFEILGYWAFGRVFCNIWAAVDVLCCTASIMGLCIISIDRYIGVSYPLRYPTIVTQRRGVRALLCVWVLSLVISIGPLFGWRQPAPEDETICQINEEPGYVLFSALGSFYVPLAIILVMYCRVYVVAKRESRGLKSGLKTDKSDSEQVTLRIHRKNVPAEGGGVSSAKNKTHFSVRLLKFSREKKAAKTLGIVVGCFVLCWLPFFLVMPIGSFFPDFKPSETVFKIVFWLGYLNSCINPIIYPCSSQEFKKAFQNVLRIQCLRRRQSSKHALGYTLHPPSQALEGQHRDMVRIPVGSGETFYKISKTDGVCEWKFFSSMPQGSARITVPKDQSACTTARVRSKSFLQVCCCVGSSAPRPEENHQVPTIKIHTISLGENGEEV
Summary of the method: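 Wistar rat submaxillary gland receptor in 50 mM Tris-HCl pH 7.4 with 0.5 mM EDTA, incubated with compound and 0.25 nM [3H]Prazosin for 60 min at 25 °C.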

[7] = biological target: T7, human recombinant serotonin (5-Hydroxytryptamine) 5-HT2C receptor (Homo sapiens, UniProt P28335); assay: Serotonin 5-HT2C radioligand binding ([3H]Mesulergine); conditions: compound at 0.1 μM; read-out: Inhibition of ligand binding, Serotonin 5-HT2C (percent inhibition of specific binding)
T7 construct: expressed in transfected cells; host or cells: CHO-K1
T7 sequence (P28335 33-458): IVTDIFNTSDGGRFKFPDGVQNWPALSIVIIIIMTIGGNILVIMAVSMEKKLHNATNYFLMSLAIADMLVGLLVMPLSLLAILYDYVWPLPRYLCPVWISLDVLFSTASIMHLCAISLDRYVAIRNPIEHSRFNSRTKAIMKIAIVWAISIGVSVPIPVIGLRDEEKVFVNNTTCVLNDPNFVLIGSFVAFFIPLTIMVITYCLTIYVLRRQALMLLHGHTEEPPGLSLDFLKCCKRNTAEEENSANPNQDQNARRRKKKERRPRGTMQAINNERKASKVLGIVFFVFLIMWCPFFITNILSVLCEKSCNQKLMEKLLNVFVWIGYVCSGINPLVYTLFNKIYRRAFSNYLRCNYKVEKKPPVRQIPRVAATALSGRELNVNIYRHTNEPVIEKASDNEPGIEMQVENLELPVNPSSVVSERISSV
Method: Compounds of the invention were incubated with 1 nM [^3H]Mesulergine for 60 min at 25° C. Non-specific binding was estimated in the presence of 1 μM Mianserin. Receptor proteins were filtered and washed, the filters were then counted to determine [^3H]Mesulergine specifically bound.

[8] = biological target: T8, human recombinant histamine H1 receptor (Homo sapiens, UniProt P35367); assay: Histamine H1 radioligand binding ([3H]Pyrilamine); conditions: read-out: Histamine H1 Binding (1 μM), percent inhibition of specific binding; compound at 1 μM; 1.2 nM [3H]Pyrilamine
T8 construct: expressed in transfected cells; host or cells: CHO-K1
Summary of the method: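 Human recombinant H1 receptor expressed in CHO-K1 cells, in 50 mM Tris-HCl pH 7.4 with 2 mM MgCl2, 100 mM NaCl, 250 mM sucrose. Non-specific binding defined with 1 μM pyrilamine; bound [3H]pyrilamine counted after filtration and washing. Values are percent inhibition of specific binding.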

T1 sequence (P28223 whole entry): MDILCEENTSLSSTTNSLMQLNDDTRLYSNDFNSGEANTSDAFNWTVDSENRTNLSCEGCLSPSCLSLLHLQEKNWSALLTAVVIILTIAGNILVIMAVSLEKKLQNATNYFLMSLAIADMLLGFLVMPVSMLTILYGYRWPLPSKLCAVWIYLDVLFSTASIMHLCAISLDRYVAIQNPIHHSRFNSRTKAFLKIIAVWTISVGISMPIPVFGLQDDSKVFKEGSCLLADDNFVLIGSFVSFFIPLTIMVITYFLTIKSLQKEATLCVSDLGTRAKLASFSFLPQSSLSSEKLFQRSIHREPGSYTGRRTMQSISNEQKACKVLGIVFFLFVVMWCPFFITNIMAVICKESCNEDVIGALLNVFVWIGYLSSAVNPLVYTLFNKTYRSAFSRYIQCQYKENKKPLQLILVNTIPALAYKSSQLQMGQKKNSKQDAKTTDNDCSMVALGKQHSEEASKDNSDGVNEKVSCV
T8 sequence (P35367 whole entry): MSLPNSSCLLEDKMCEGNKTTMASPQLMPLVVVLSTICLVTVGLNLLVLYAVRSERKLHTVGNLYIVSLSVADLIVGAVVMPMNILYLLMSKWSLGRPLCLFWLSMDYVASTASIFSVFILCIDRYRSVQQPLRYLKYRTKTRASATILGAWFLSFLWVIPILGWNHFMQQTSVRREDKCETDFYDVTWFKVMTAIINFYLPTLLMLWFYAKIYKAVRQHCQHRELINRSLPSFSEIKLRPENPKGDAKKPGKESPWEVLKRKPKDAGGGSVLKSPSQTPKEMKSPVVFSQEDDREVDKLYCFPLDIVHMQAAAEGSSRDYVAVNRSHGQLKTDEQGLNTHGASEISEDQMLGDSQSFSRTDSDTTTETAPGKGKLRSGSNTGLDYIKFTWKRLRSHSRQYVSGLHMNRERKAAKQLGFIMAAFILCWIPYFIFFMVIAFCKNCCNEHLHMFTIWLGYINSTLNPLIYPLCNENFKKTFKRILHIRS
T3 sequence (P34969 whole entry): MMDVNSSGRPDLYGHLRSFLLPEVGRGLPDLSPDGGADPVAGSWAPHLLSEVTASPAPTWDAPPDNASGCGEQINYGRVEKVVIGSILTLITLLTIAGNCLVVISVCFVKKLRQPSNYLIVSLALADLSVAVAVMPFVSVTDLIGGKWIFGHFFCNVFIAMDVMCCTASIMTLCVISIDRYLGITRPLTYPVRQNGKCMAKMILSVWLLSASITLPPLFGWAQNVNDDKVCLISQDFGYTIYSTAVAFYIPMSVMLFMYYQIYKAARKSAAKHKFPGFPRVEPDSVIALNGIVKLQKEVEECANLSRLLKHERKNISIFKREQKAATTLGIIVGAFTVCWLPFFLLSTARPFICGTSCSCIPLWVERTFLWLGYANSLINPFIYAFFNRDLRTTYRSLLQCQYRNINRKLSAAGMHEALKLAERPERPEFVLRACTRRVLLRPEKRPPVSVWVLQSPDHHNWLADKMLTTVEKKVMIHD
T5 sequence (P47898 whole entry): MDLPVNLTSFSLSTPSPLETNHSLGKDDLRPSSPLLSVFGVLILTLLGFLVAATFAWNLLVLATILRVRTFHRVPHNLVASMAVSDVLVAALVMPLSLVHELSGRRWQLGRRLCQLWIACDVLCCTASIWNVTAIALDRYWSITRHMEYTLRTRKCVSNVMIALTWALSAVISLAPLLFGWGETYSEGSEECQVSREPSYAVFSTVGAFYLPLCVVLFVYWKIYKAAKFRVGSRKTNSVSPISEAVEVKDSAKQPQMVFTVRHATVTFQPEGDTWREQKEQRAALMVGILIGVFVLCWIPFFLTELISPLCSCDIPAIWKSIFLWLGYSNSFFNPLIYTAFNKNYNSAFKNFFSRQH
T2 sequence (P14416 whole entry): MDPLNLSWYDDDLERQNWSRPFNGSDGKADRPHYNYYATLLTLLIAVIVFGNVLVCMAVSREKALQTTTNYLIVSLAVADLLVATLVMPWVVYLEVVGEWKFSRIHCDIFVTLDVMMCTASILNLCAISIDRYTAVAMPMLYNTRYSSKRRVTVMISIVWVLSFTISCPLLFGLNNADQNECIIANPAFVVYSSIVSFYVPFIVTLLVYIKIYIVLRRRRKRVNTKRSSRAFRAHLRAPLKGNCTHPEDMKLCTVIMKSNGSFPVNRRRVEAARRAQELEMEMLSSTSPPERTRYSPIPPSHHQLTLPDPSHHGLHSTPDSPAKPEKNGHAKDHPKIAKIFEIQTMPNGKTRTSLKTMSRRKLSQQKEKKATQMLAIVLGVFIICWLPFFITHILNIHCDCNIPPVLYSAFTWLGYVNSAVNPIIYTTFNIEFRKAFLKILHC
T4 sequence (P50406 whole entry): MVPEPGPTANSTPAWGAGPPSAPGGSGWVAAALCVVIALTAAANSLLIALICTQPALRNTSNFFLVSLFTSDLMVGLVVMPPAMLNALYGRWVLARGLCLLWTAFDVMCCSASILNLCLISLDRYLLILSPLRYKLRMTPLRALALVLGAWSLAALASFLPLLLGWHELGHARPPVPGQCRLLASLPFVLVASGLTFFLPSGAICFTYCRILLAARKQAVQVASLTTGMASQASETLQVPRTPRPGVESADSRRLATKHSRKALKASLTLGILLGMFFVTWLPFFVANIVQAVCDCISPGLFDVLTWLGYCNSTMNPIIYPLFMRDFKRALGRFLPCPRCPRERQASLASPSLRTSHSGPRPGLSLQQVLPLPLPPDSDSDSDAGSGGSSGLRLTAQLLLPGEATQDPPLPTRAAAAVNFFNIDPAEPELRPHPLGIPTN

Row | Structure (SMILES) | inhibition at 0.1 µM [1] [%] | inhibition at 1 µM [2] [%] | inhibition at 0.1 µM [3] [%] | inhibition at 0.1 µM [4] [%] | inhibition at 0.1 µM [5] [%] | inhibition at 0.1 µM [6] [%] | inhibition at 0.1 µM [7] [%] | inhibition at 1 µM [8] [%]
1 | Cc1ccc2c(c1)c1c(n2-c2ccccc2-c2cccn2C)CCN(C)C1 [Compound No. 100, 2,8-dimethyl-5-(2-(1-methyl-1H-pyrrol-2-yl)phenyl)-2,3,4,5-tetrahydro-1H-pyrido[4,3-b]indole] | 74 | 11 | 48 | 26 | 11 | 46 | 72 | 36
2 | Cc1ccc2c(c1)c1c(n2-c2ccccc2-c2sccc2C)CCN(C)C1 [Compound No. 102, 2,8-dimethyl-5-(2-(3-methylthiophen-2-yl)phenyl)-2,3,4,5-tetrahydro-1H-pyrido[4,3-b]indole] | 92 | 48 | 34 | 42 | 10 | 28 | 90 | 57
3 | Cc1ccc2c(c1)c1c(n2-c2ccccc2-c2cccc3[nH]ncc23)CCN(C)C1 [Compound No. 105, 5-(2-(1H-indazol-4-yl)phenyl)-2,8-dimethyl-2,3,4,5-tetrahydro-1H-pyrido[4,3-b]indole] | 94 | 3 | 54 | 40 | 56 | 55 | 82 | 34
4 | Cc1ccc2c(c1)c1c(n2-c2ccccc2-c2cc3ccccc3s2)CCN(C)C1 [Compound No. 103, 5-(2-(benzo[b]thiophen-2-yl)phenyl)-2,8-dimethyl-2,3,4,5-tetrahydro-1H-pyrido[4,3-b]indole] | 24 | 10 | 39 | 20 | 42 | 44 | 43 | 10
5 | Cc1ccc2c(c1)c1c(n2-c2ccccc2-c2cncc3ccccc23)CCN(C)C1 [Compound No. 87, 5-(2-(isoquinolin-4-yl)phenyl)-2,8-dimethyl-2,3,4,5-tetrahydro-1H-pyrido[4,3-b]indole] | 70 | 10 | 14 | 13 | 24 | 8 | 66 | 47
6 | Cc1ccc2c(c1)c1c(n2-c2cnc3ccccc3c2)CCN(C)C1 [Compound No. 88, 2,8-dimethyl-5-quinolin-3-yl-2,3,4,5-tetrahydro-1H-pyrido[4,3-b]indole] | 93 | 7 | 13 | 4 | 22 | 20 | 90 | 18
7 | Cc1ccc2c(c1)c1c(n2-c2ccccc2-c2cn[nH]c2)CCN(C)C1 [Compound No. 104, 5-(2-(1H-pyrazol-4-yl)phenyl)-2,8-dimethyl-2,3,4,5-tetrahydro-1H-pyrido[4,3-b]indole] | 57 | -1 | 27 | 10 | 20 | 4 | 77 | 24
8 | Cc1ccc2c(c1)c1c(n2-c2ccccc2-c2cnn(C)c2)CCN(C)C1 [Compound No. 86, 2,8-dimethyl-5-(2-(1-methyl-1H-pyrazol-4-yl)phenyl)-2,3,4,5-tetrahydro-1H-pyrido[4,3-b]indole] | 94 | 6 | 53 | 11 | 37 | 17 | 71 | 47
